Measurements: the NIST ThermoML archive (doi:10.1021/je801006q)
± gives the expanded uncertainty stated by the source.

Tests used:
[1] = xn = mol fraction of the nth substance listed; conditions: 101 kPa, Liquid
[2] = excess molar enthalpy (molar enthalpy of mixing); xn = mol fraction of the nth substance listed; conditions: 298.15 K, 101 kPa, Liquid, Calvet calorimetry
[3] = 101.33 kPa, Liquid

O=C1CCCN1 [2-pyrrolidinone] + CC(C)CO
mass density ([1]; 293.15 K, x1 = 0.0889): 824.77 ± 0.45 kg/m3
viscosity ([1]; 293.15 K, x1 = 0.0889): 3.624 ± 0.32 mPa·s
mass density ([1]; 293.15 K, x1 = 0.1776): 848.94 ± 0.42 kg/m3
viscosity ([1]; 293.15 K, x1 = 0.1776): 3.381 ± 0.3 mPa·s
mass density ([1]; 293.15 K, x1 = 0.2378): 865.74 ± 0.41 kg/m3
viscosity ([1]; 293.15 K, x1 = 0.2378): 2.987 ± 0.27 mPa·s
mass density ([1]; 293.15 K, x1 = 0.3009): 883.75 ± 0.39 kg/m3
viscosity ([1]; 293.15 K, x1 = 0.3009): 2.87 ± 0.26 mPa·s
mass density ([1]; 293.15 K, x1 = 0.3978): 912.12 ± 0.36 kg/m3
viscosity ([1]; 293.15 K, x1 = 0.3978): 2.787 ± 0.25 mPa·s
mass density ([1]; 293.15 K, x1 = 0.4456): 926.49 ± 0.35 kg/m3
viscosity ([1]; 293.15 K, x1 = 0.4456): 2.833 ± 0.25 mPa·s
mass density ([1]; 293.15 K, x1 = 0.5106): 946.36 ± 0.33 kg/m3
viscosity ([1]; 293.15 K, x1 = 0.5106): 3.145 ± 0.28 mPa·s
mass density ([1]; 293.15 K, x1 = 0.5844): 969.46 ± 0.31 kg/m3
viscosity ([1]; 293.15 K, x1 = 0.5844): 3.686 ± 0.33 mPa·s
mass density ([1]; 293.15 K, x1 = 0.6489): 990.11 ± 0.3 kg/m3
viscosity ([1]; 293.15 K, x1 = 0.6489): 4.428 ± 0.39 mPa·s
mass density ([1]; 293.15 K, x1 = 0.7126): 1010.87 ± 0.32 kg/m3
viscosity ([1]; 293.15 K, x1 = 0.7126): 5.569 ± 0.47 mPa·s
mass density ([1]; 293.15 K, x1 = 0.7943): 1038.14 ± 0.38 kg/m3
viscosity ([1]; 293.15 K, x1 = 0.7943): 7.61 ± 0.6 mPa·s
mass density ([1]; 293.15 K, x1 = 0.8564): 1059.36 ± 0.43 kg/m3
viscosity ([1]; 293.15 K, x1 = 0.8564): 9.46 ± 0.71 mPa·s
mass density ([1]; 293.15 K, x1 = 0.9126): 1078.91 ± 0.48 kg/m3
viscosity ([1]; 293.15 K, x1 = 0.9126): 11.57 ± 0.84 mPa·s
mass density ([1]; 293.15 K, x1 = 0.9753): 1100.98 ± 0.53 kg/m3
viscosity ([1]; 293.15 K, x1 = 0.9753): 14.55 ± 1 mPa·s
mass density ([1]; 298.15 K, x1 = 0.0889): 821.28 ± 0.46 kg/m3
viscosity ([1]; 298.15 K, x1 = 0.0889): 3.033 ± 0.27 mPa·s
mass density ([1]; 298.15 K, x1 = 0.1776): 845.47 ± 0.43 kg/m3
viscosity ([1]; 298.15 K, x1 = 0.1776): 2.802 ± 0.25 mPa·s
mass density ([1]; 298.15 K, x1 = 0.2378): 862.31 ± 0.41 kg/m3
viscosity ([1]; 298.15 K, x1 = 0.2378): 2.57 ± 0.23 mPa·s
mass density ([1]; 298.15 K, x1 = 0.3009): 880.34 ± 0.39 kg/m3
viscosity ([1]; 298.15 K, x1 = 0.3009): 2.483 ± 0.23 mPa·s
mass density ([1]; 298.15 K, x1 = 0.3978): 908.8 ± 0.37 kg/m3
viscosity ([1]; 298.15 K, x1 = 0.3978): 2.487 ± 0.23 mPa·s
mass density ([1]; 298.15 K, x1 = 0.4456): 923.19 ± 0.35 kg/m3
viscosity ([1]; 298.15 K, x1 = 0.4456): 2.483 ± 0.23 mPa·s
mass density ([1]; 298.15 K, x1 = 0.5106): 943.11 ± 0.34 kg/m3
viscosity ([1]; 298.15 K, x1 = 0.5106): 2.736 ± 0.25 mPa·s
mass density ([1]; 298.15 K, x1 = 0.5844): 966.29 ± 0.32 kg/m3
viscosity ([1]; 298.15 K, x1 = 0.5844): 3.262 ± 0.29 mPa·s
mass density ([1]; 298.15 K, x1 = 0.6489): 987 ± 0.3 kg/m3
viscosity ([1]; 298.15 K, x1 = 0.6489): 3.966 ± 0.35 mPa·s
mass density ([1]; 298.15 K, x1 = 0.7126): 1007.83 ± 0.31 kg/m3
viscosity ([1]; 298.15 K, x1 = 0.7126): 4.938 ± 0.43 mPa·s
mass density ([1]; 298.15 K, x1 = 0.7943): 1035.18 ± 0.37 kg/m3
viscosity ([1]; 298.15 K, x1 = 0.7943): 6.753 ± 0.54 mPa·s
mass density ([1]; 298.15 K, x1 = 0.8564): 1056.43 ± 0.43 kg/m3
viscosity ([1]; 298.15 K, x1 = 0.8564): 8.552 ± 0.66 mPa·s
mass density ([1]; 298.15 K, x1 = 0.9126): 1075.98 ± 0.47 kg/m3
viscosity ([1]; 298.15 K, x1 = 0.9126): 10.27 ± 0.76 mPa·s
mass density ([1]; 298.15 K, x1 = 0.9753): 1098.14 ± 0.53 kg/m3
viscosity ([1]; 298.15 K, x1 = 0.9753): 12.91 ± 0.93 mPa·s
mass density ([1]; 303.15 K, x1 = 0.0889): 817.86 ± 0.46 kg/m3
viscosity ([1]; 303.15 K, x1 = 0.0889): 2.921 ± 0.26 mPa·s
mass density ([1]; 303.15 K, x1 = 0.1776): 842.04 ± 0.43 kg/m3
viscosity ([1]; 303.15 K, x1 = 0.1776): 2.596 ± 0.23 mPa·s
mass density ([1]; 303.15 K, x1 = 0.2378): 858.86 ± 0.42 kg/m3
viscosity ([1]; 303.15 K, x1 = 0.2378): 2.409 ± 0.22 mPa·s
mass density ([1]; 303.15 K, x1 = 0.3009): 876.86 ± 0.4 kg/m3
viscosity ([1]; 303.15 K, x1 = 0.3009): 2.167 ± 0.2 mPa·s
mass density ([1]; 303.15 K, x1 = 0.3978): 905.28 ± 0.37 kg/m3
viscosity ([1]; 303.15 K, x1 = 0.3978): 1.789 ± 0.17 mPa·s
mass density ([1]; 303.15 K, x1 = 0.4456): 919.66 ± 0.36 kg/m3
viscosity ([1]; 303.15 K, x1 = 0.4456): 1.75 ± 0.16 mPa·s
mass density ([1]; 303.15 K, x1 = 0.5106): 939.59 ± 0.34 kg/m3
viscosity ([1]; 303.15 K, x1 = 0.5106): 1.783 ± 0.17 mPa·s
mass density ([1]; 303.15 K, x1 = 0.5844): 962.76 ± 0.32 kg/m3
viscosity ([1]; 303.15 K, x1 = 0.5844): 2.118 ± 0.19 mPa·s
mass density ([1]; 303.15 K, x1 = 0.6489): 983.49 ± 0.31 kg/m3
viscosity ([1]; 303.15 K, x1 = 0.6489): 2.645 ± 0.24 mPa·s
mass density ([1]; 303.15 K, x1 = 0.7126): 1004.4 ± 0.31 kg/m3
viscosity ([1]; 303.15 K, x1 = 0.7126): 3.369 ± 0.3 mPa·s
mass density ([1]; 303.15 K, x1 = 0.7943): 1031.8 ± 0.37 kg/m3
viscosity ([1]; 303.15 K, x1 = 0.7943): 4.876 ± 0.42 mPa·s
mass density ([1]; 303.15 K, x1 = 0.8564): 1053.04 ± 0.42 kg/m3
viscosity ([1]; 303.15 K, x1 = 0.8564): 6.388 ± 0.52 mPa·s
mass density ([1]; 303.15 K, x1 = 0.9126): 1072.53 ± 0.47 kg/m3
viscosity ([1]; 303.15 K, x1 = 0.9126): 8.021 ± 0.62 mPa·s
mass density ([1]; 303.15 K, x1 = 0.9753): 1094.58 ± 0.52 kg/m3
viscosity ([1]; 303.15 K, x1 = 0.9753): 10.15 ± 0.76 mPa·s
excess molar enthalpy ([2]; x1 = 0.0522): 0.029 ± 0.000693 kcal/mol
excess molar enthalpy ([2]; x1 = 0.1222): 0.0512 ± 0.00117 kcal/mol
excess molar enthalpy ([2]; x1 = 0.1812): 0.065 ± 0.00146 kcal/mol
excess molar enthalpy ([2]; x1 = 0.2451): 0.0714 ± 0.00158 kcal/mol
excess molar enthalpy ([2]; x1 = 0.3296): 0.0748 ± 0.00165 kcal/mol
excess molar enthalpy ([2]; x1 = 0.4043): 0.074 ± 0.00163 kcal/mol
excess molar enthalpy ([2]; x1 = 0.4535): 0.0711 ± 0.00158 kcal/mol
excess molar enthalpy ([2]; x1 = 0.5022): 0.0663 ± 0.00148 kcal/mol
excess molar enthalpy ([2]; x1 = 0.5912): 0.0582 ± 0.00129 kcal/mol
excess molar enthalpy ([2]; x1 = 0.6807): 0.0489 ± 0.0011 kcal/mol
excess molar enthalpy ([2]; x1 = 0.7402): 0.043 ± 0.00098 kcal/mol
excess molar enthalpy ([2]; x1 = 0.8466): 0.0286 ± 0.000693 kcal/mol
excess molar enthalpy ([2]; x1 = 0.9233): 0.0171 ± 0.000454 kcal/mol

CCCCO [butan-1-ol]
mass density ([3]; 293.15 K): 809.52 ± 0.22 kg/m3
viscosity ([3]; 293.15 K): 2.941 ± 0.26 mPa·s
mass density ([3]; 298.15 K): 805.54 ± 0.22 kg/m3
viscosity ([3]; 298.15 K): 2.572 ± 0.23 mPa·s
mass density ([3]; 303.15 K): 801.92 ± 0.23 kg/m3
viscosity ([3]; 303.15 K): 2.275 ± 0.21 mPa·s

CC(C)(C)O [2-methylpropan-2-ol]
mass density ([3]; 293.15 K): 795.68 ± 0.48 kg/m3
viscosity ([3]; 293.15 K): 5.486 ± 0.46 mPa·s
mass density ([3]; 298.15 K): 780.65 ± 0.51 kg/m3
viscosity ([3]; 298.15 K): 4.436 ± 0.39 mPa·s
mass density ([3]; 303.15 K): 775.76 ± 0.51 kg/m3
viscosity ([3]; 303.15 K): 3.378 ± 0.3 mPa·s
